# Reference: the supplement of paper PMC8617591
# Columns and labels:
# [1] = test system: Mycobacterium tuberculosis Erdman (autoluminescent); experiment: total FIC50 (Loewe) at 50% inhibition, three-drug combination (log2); higher = more antagonistic
# Protocol: (§1)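 DiaMOND equipotent three-drug combination dose responses (10 doses, 1.5- or 2-fold spacing, centred on IC90) against autoluminescent M. tuberculosis Erdman in 8 in vitro models. Read-out is OD600, or luminescence for the intracellular and dormancy models, normalised to untreated wells. Hill-fit Einf, AUC25 and GRinf are potency metrics; FIC50 and FIC90 are total Loewe fractional inhibitory concentrations as log2 (negative = synergy).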
# [2] = test system: Mycobacterium tuberculosis Erdman (autoluminescent); experiment: total FIC90 (Loewe) at 90% inhibition, three-drug combination (log2); higher = more antagonistic
# Protocol: as §1
# [3] = test system: Mycobacterium tuberculosis Erdman (autoluminescent); experiment: Einf, fitted maximum growth inhibition of three-drug combination (fraction); higher = stronger maximal inhibition
# Protocol: as §1
# [4] = test system: Mycobacterium tuberculosis Erdman (autoluminescent); experiment: AUC25, normalised area under dose response up to IC25 (three-drug combination) (fraction (0-1)); higher = more potent at low dose
# Protocol: as §1
# [5] = test system: Mycobacterium tuberculosis Erdman (autoluminescent); experiment: GRinf, maximum normalised growth rate inhibition (three-drug combination) (unitless (-1 to 1)); higher = less effect (negative = killing)
# Protocol: as §1
# [6] = in vitro model: acidic pH 5.7, time point: constant (~7 days, model-specific)
# [7] = in vitro model: acidic pH 5.7, time point: terminal (~4-5 doublings, model-specific)
# [8] = in vitro model: butyrate, time point: constant (~7 days, model-specific)
# [9] = in vitro model: butyrate, time point: terminal (~4-5 doublings, model-specific)
# [10] = in vitro model: cholesterol 0.05 mM, time point: constant (~7 days, model-specific)
# [11] = in vitro model: cholesterol 0.05 mM, time point: terminal (~4-5 doublings, model-specific)
# [12] = in vitro model: cholesterol-high 0.2 mM, time point: constant (~7 days, model-specific)
# [13] = in vitro model: cholesterol-high 0.2 mM, time point: terminal (~4-5 doublings, model-specific)
# [14] = in vitro model: dormancy (butyrate + nitrate, low O2), time point: constant (~7 days, model-specific)
# [15] = in vitro model: dormancy (butyrate + nitrate, low O2), time point: terminal (~4-5 doublings, model-specific)
# [16] = in vitro model: standard 7H9 glycerol, time point: constant = terminal
# [17] = in vitro model: valerate, time point: constant (~7 days, model-specific)
# [18] = in vitro model: valerate, time point: terminal (~4-5 doublings, model-specific)
# [19] = in vitro model: intracellular J774, time point: constant = terminal
structure (smiles),measurement,setting,value
CC[C@@H](CO)NCCN[C@@H](CC)CO [ethambutol] + NNC(=O)c1ccncc1 [isoniazid] + O=[N+]([O-])c1cn2c(n1)OC[C@@H](OCc1ccc(OC(F)(F)F)cc1)C2 [pretomanid],total FIC50,[1]; [6],0.401
same,total FIC50,[1]; [7],0.77
same,total FIC50,[1]; [8],0.443
same,total FIC50,[1]; [9],0.439
same,total FIC50,[1]; [10],0.668
same,total FIC50,[1]; [11],0.823
same,total FIC50,[1]; [12],1.17
same,total FIC50,[1]; [13],1.18
same,total FIC50,[1]; [14],0.0212
same,total FIC50,[1]; [15],0.237
same,total FIC50,[1]; [16],0.498
same,total FIC50,[1]; [17],0.146
same,total FIC50,[1]; [18],0.406
same,total FIC90,[2]; [7],0.544
same,total FIC90,[2]; [9],0.012
same,total FIC90,[2]; [13],1.18
same,total FIC90,[2]; [15],0.398
same,total FIC90,[2]; [19],-0.84
same,Einf,[3]; [6],0.841
same,Einf,[3]; [7],0.968
same,Einf,[3]; [8],0.941
same,Einf,[3]; [9],0.966
same,Einf,[3]; [10],0.715
same,Einf,[3]; [11],0.858
same,Einf,[3]; [12],0.881
same,Einf,[3]; [13],0.996
same,Einf,[3]; [14],0.915
same,Einf,[3]; [15],0.982
same,Einf,[3]; [19],0.996
same,Einf,[3]; [16],0.924
same,Einf,[3]; [17],0.867
same,Einf,[3]; [18],0.92
same,AUC25,[4]; [6],0.121
same,AUC25,[4]; [7],0.0806
same,AUC25,[4]; [8],0.0954
same,AUC25,[4]; [9],0.0496
same,AUC25,[4]; [10],0.11
same,AUC25,[4]; [11],0.0657
same,AUC25,[4]; [12],0.0675
same,AUC25,[4]; [13],0.0388
same,AUC25,[4]; [14],0.162
same,AUC25,[4]; [15],0.105
same,AUC25,[4]; [16],0.0742
same,AUC25,[4]; [17],0.109
same,AUC25,[4]; [18],0.0768
same,GRinf,[5]; [6],-0.764
same,GRinf,[5]; [7],-0.36
same,GRinf,[5]; [8],-0.0462
same,GRinf,[5]; [9],-0.0497
same,GRinf,[5]; [10],-0.203
same,GRinf,[5]; [11],0.0963
same,GRinf,[5]; [12],-0.113
same,GRinf,[5]; [13],-0.623
same,GRinf,[5]; [14],0.106
same,GRinf,[5]; [15],-0.213
same,GRinf,[5]; [19],-0.562
same,GRinf,[5]; [16],0.0732
same,GRinf,[5]; [17],0.0667
same,GRinf,[5]; [18],0.0915
CC[C@@H](CO)NCCN[C@@H](CC)CO [ethambutol] + O=[N+]([O-])c1cn2c(n1)OC[C@@H](OCc1ccc(OC(F)(F)F)cc1)C2 [pretomanid] + CO[C@H]1/C=C/O[C@@]2(C)Oc3c(C)c(O)c4c(O)c(c(/C=N/N5CCN(C6CCCC6)CC5)c(O)c4c3C2=O)NC(=O)/C(C)=C\C=C\[C@H](C)[C@H](O)[C@@H](C)[C@@H](O)[C@@H](C)[C@H](OC(C)=O)[C@@H]1C [rifapentine],total FIC50,[1]; [6],-0.27
same,total FIC50,[1]; [7],-0.17
same,total FIC50,[1]; [8],0.274
same,total FIC50,[1]; [9],0.212
same,total FIC50,[1]; [10],0.946
same,total FIC50,[1]; [11],1.14
same,total FIC50,[1]; [12],1.15
same,total FIC50,[1]; [13],1.34
same,total FIC50,[1]; [14],0.472
same,total FIC50,[1]; [15],0.154
same,total FIC50,[1]; [16],0.054
same,total FIC50,[1]; [17],0.185
same,total FIC50,[1]; [18],0.593
same,total FIC90,[2]; [7],-0.213
same,total FIC90,[2]; [9],-0.372
same,total FIC90,[2]; [13],1.42
same,total FIC90,[2]; [15],0.383
same,total FIC90,[2]; [19],-1.96
same,total FIC90,[2]; [18],0.229
same,Einf,[3]; [6],0.881
same,Einf,[3]; [7],0.965
same,Einf,[3]; [8],0.917
same,Einf,[3]; [9],0.96
same,Einf,[3]; [10],0.743
same,Einf,[3]; [11],0.923
same,Einf,[3]; [12],0.825
same,Einf,[3]; [13],1
same,Einf,[3]; [14],0.832
same,Einf,[3]; [15],0.964
same,Einf,[3]; [19],0.983
same,Einf,[3]; [16],0.912
same,Einf,[3]; [17],0.882
same,Einf,[3]; [18],0.938
same,AUC25,[4]; [6],0.109
same,AUC25,[4]; [7],0.0593
same,AUC25,[4]; [8],0.0719
same,AUC25,[4]; [9],0.0544
same,AUC25,[4]; [10],0.103
same,AUC25,[4]; [11],0.0797
same,AUC25,[4]; [12],0.0331
same,AUC25,[4]; [13],0.0353
same,AUC25,[4]; [14],0.115
same,AUC25,[4]; [15],0.0993
same,AUC25,[4]; [16],0.0595
same,AUC25,[4]; [17],0.0932
same,AUC25,[4]; [18],0.0526
same,GRinf,[5]; [6],-0.167
same,GRinf,[5]; [7],-0.136
same,GRinf,[5]; [8],0.00142
same,GRinf,[5]; [9],0.0016
same,GRinf,[5]; [10],-0.355
same,GRinf,[5]; [11],-0.204
same,GRinf,[5]; [12],-0.056
same,GRinf,[5]; [13],-0.701
same,GRinf,[5]; [14],0.245
same,GRinf,[5]; [15],-0.137
same,GRinf,[5]; [19],-0.509
same,GRinf,[5]; [16],0.0905
same,GRinf,[5]; [17],-0.0094
same,GRinf,[5]; [18],0.0245
CC[C@@H](CO)NCCN[C@@H](CC)CO [ethambutol] + O=[N+]([O-])c1cn2c(n1)OC[C@@H](OCc1ccc(OC(F)(F)F)cc1)C2 [pretomanid] + CO[C@H]1/C=C/O[C@@]2(C)Oc3c(C)c(O)c4c(O)c(c(/C=N/N5CCN(C)CC5)c(O)c4c3C2=O)NC(=O)/C(C)=C\C=C\[C@H](C)[C@H](O)[C@@H](C)[C@@H](O)[C@@H](C)[C@H](OC(C)=O)[C@@H]1C [rifampicin],total FIC50,[1]; [6],-0.207
same,total FIC50,[1]; [7],-0.118
same,total FIC50,[1]; [8],0.153
same,total FIC50,[1]; [9],-0.0702
same,total FIC50,[1]; [10],0.599
same,total FIC50,[1]; [11],0.863
same,total FIC50,[1]; [12],1.05
same,total FIC50,[1]; [13],1.06
same,total FIC50,[1]; [14],-0.71
same,total FIC50,[1]; [15],-0.599
same,total FIC50,[1]; [16],-0.222
same,total FIC50,[1]; [17],0.363
same,total FIC50,[1]; [18],0.443
same,total FIC90,[2]; [7],-0.7
same,total FIC90,[2]; [9],-0.43
same,total FIC90,[2]; [13],0.833
same,total FIC90,[2]; [15],-0.673
same,total FIC90,[2]; [19],-2.45
same,total FIC90,[2]; [18],-0.575
same,Einf,[3]; [6],0.896
same,Einf,[3]; [7],0.965
same,Einf,[3]; [8],0.908
same,Einf,[3]; [9],0.968
same,Einf,[3]; [10],0.753
same,Einf,[3]; [11],0.852
same,Einf,[3]; [12],0.857
same,Einf,[3]; [13],0.992
same,Einf,[3]; [14],0.883
same,Einf,[3]; [15],0.993
same,Einf,[3]; [19],0.979
same,Einf,[3]; [16],0.919
same,Einf,[3]; [17],0.876
same,Einf,[3]; [18],0.931
same,AUC25,[4]; [6],0.116
same,AUC25,[4]; [7],0.0422
same,AUC25,[4]; [8],0.0766
same,AUC25,[4]; [9],0.075
same,AUC25,[4]; [10],0.123
same,AUC25,[4]; [11],0.0708
same,AUC25,[4]; [12],0.0614
same,AUC25,[4]; [13],0.0471
same,AUC25,[4]; [14],0.102
same,AUC25,[4]; [15],0.085
same,AUC25,[4]; [16],0.0649
same,AUC25,[4]; [17],0.0577
same,AUC25,[4]; [18],0.033
same,GRinf,[5]; [6],-0.0878
same,GRinf,[5]; [7],-0.0884
same,GRinf,[5]; [8],0.0166
same,GRinf,[5]; [9],-0.0125
same,GRinf,[5]; [10],-0.232
same,GRinf,[5]; [11],0.216
same,GRinf,[5]; [12],-0.0797
same,GRinf,[5]; [13],-0.568
same,GRinf,[5]; [14],0.315
same,GRinf,[5]; [15],-0.16
same,GRinf,[5]; [19],-0.423
same,GRinf,[5]; [16],0.0317
same,GRinf,[5]; [17],0.0174
same,GRinf,[5]; [18],0.0322
